The subject of assay [1] is Bacillus subtilis. Put plainly: Antibacterial activity against Bacillus subtilis 1046 in presence of 1.25 mM Ca2+. Format: functional.
The test system of assay [2] is Bacillus subtilis. The assay is described as follows: Antibacterial activity against Bacillus subtilis 1046 in presence of 5 mM Ca2+. Format: functional.
Assay [3] has as its system Lipid bilayer. The assay is described as follows: Binding affinity to DMPC/DMPG large unilamellar vesicles assessed as increase in intrinsic fluorescence in presence of >10 mM Ca2+ by fluorescence based assay.
Assay [4] concerns Lipid bilayer. The assay is described as follows: Binding affinity to DMPC/DMPG large unilamellar vesicles assessed as increase in intrinsic fluorescence in presence of 1 mM Ca2+ by fluorescence based assay.
Assay [5] concerns Lipid bilayer. The assay is described as follows: Binding affinity to DMPC/DMPG large unilamellar vesicles assessed as increase in intrinsic fluorescence in presence of 10 mM Ca2+ by fluorescence based assay.
Assay [6] deals with Lipid bilayer. Put plainly: Binding affinity to DMPC/DMPG large unilamellar vesicles assessed as increase in intrinsic fluorescence in presence of >0.1 mM Ca2+ by fluorescence based assay.
In another assay the test system is Staphylococcus aureus. Put plainly: Antibacterial activity against Staphylococcus aureus. Format: functional.
Assay [7] has as its system Lipid bilayer. The assay is described as follows: Binding affinity to DMPC/DMPG large unilamellar vesicles assessed as increase in intrinsic fluorescence in presence of >1 mM Ca2+ by fluorescence based assay.

In general, MIC refers to the least concentration at which growth counts as inhibited.

≈ marks a conversion by molar mass, not a printed value. Calls of active or inactive are those of the source. The calls are words filed in the database; no cut-off is given here.

As for `CCCCCCCCCC(=O)N[C@@H](Cc1c[nH]c2ccccc12)C(=O)N[C@@H](CC(N)=O)C(=O)N[C@@H](CC(=O)O)C(=O)N[C@@H]1C(=O)NCC(=O)N[C@@H](CCCCN)C(=O)N[C@@H](CC(=O)O)C(=O)N[C@H](C)C(=O)N[C@@H](CC(=O)O)C(=O)NCC(=O)N[C@H](CO)C(=O)N[C@@H](CCC(=O)O)C(=O)N[C@@H](Cc2c[nH]c3ccccc23)C(=O)N[C@H]1C`, the MIC with Bacillus subtilis [1] is more than 100 µg/mL; in the assay on Bacillus subtilis [2] it was 10 µg/mL. Further, in the assay with Lipid bilayer [3], the outcome was Active.
As for `CCCCCCCCCC(=O)N[C@H](Cc1c[nH]c2ccccc12)C(=O)N[C@H](CC(N)=O)C(=O)N[C@@H](CC(=O)O)C(=O)N[C@H]1C(=O)NCC(=O)N[C@H](CCCCN)C(=O)N[C@H](CC(=O)O)C(=O)N[C@@H](C)C(=O)N[C@H](CC(=O)O)C(=O)NCC(=O)N[C@@H](CO)C(=O)N[C@H](CCC(=O)O)C(=O)N[C@H](Cc2c[nH]c3ccccc23)C(=O)O[C@H]1C`, the MIC in the assay on Bacillus subtilis [1] was more than 200 µg/mL; with Bacillus subtilis [2], 100 µg/mL. The outcome with Lipid bilayer [4] and in the assay with Lipid bilayer [5] was Active.
Turning to `CCCCCCCCCC(=O)N[C@@H](Cc1c[nH]c2ccccc12)C(=O)N[C@H](CC(N)=O)C(=O)N[C@@H](CC(=O)O)C(=O)N[C@@H]1C(=O)NCC(=O)N[C@@H](CCCN)C(=O)N[C@@H](CC(=O)O)C(=O)N[C@H](C)C(=O)N[C@@H](CC(=O)O)C(=O)NCC(=O)N[C@H](CO)C(=O)N[C@@H]([C@H](C)CC(=O)O)C(=O)N[C@@H](CC(=O)c2ccccc2N)C(=O)O[C@@H]1C`, the outcome with Lipid bilayer [6] was Active. For the same compound, the results for the MIC with Bacillus subtilis [1], with Bacillus subtilis [2] and against Staphylococcus aureus were 0.75 µg/mL, 0.5 µg/mL and 1.9 µg/mL (≈ 1.17 µM), respectively.
The compound `CCCCCCCCCC(=O)N[C@H](Cc1c[nH]c2ccccc12)C(=O)N[C@H](CC(N)=O)C(=O)N[C@@H](CC(=O)O)C(=O)N[C@H]1CNC(=O)[C@@H](Cc2c[nH]c3ccccc23)NC(=O)[C@@H](CCC(=O)O)NC(=O)[C@H](CO)NC(=O)CNC(=O)[C@@H](CC(=O)O)NC(=O)[C@H](C)NC(=O)[C@@H](CC(=O)O)NC(=O)[C@@H](CCCCN)NC(=O)CNC1=O` displayed an MIC against Staphylococcus aureus of 160 µg/mL (≈ 99.9 µM).
Turning to `CCCCCCCCCC(=O)N[C@@H](Cc1c[nH]c2ccccc12)C(=O)N[C@@H](CC(N)=O)C(=O)N[C@@H](CC(=O)O)C(=O)N[C@@H]1C(=O)NCC(=O)N[C@@H](CCCCN)C(=O)N[C@@H](CC(=O)O)C(=O)N[C@H](C)C(=O)N[C@@H](CC(=O)O)C(=O)NCC(=O)N[C@H](CO)C(=O)N[C@@H](CCC(=O)O)C(=O)N[C@@H](Cc2c[nH]c3ccccc23)C(=O)N[C@@H]1C`, the outcome in the assay on Lipid bilayer [7] was Active. In addition, the MIC turned out to be 50 µg/mL in the assay on Bacillus subtilis [1] and 10 µg/mL in the assay with Bacillus subtilis [2].
Regarding `CCCCCCCCCC(=O)N[C@@H](Cc1c[nH]c2ccccc12)C(=O)N[C@@H](CC(N)=O)C(=O)N[C@@H](CC(=O)O)C(=O)N[C@@H]1C(=O)NCC(=O)N[C@@H](CCCCN)C(=O)N[C@@H](CC(=O)O)C(=O)N[C@H](C)C(=O)N[C@@H](CC(=O)O)C(=O)NCC(=O)N[C@H](CO)C(=O)N[C@@H](CCC(=O)O)C(=O)N[C@@H](Cc2c[nH]c3ccccc23)C(=O)O[C@@H]1C`, the result in the assay on Lipid bilayer [6] was Active. The MIC in the assay with Bacillus subtilis [1] was found to be 1.5 µg/mL; with Bacillus subtilis [2], 0.5 µg/mL.
